Data as given in PubChem BioAssay AID1963846 (Molecular Pharmacology Branch, DTP, NCI, 2024).
“And” between values parts separate entries of the source, which are not always exact repeats. Equal values may be shown once.

Tested on: 454973-116-R2-J3-PDC complex spheroid viability
Experiment: Anticancer human tumor 454973-116-R2-J3-PDC patient-derived pancreatic carcinoma cell line growth inhibition [POLQ]
Details: for viability, T/C: stronger effect = lower value
Protocol: Multicellular complex tumor spheroid response to Polymerase (POL) inhibitors (novobiocin, ART-558, RP6685) in combination with a variety of drugs and investigational agents in selected tumor cell lines
The POL inhibitors (novobiocin, ART-558, and RP6685) were evaluated both individually and in combination with standard of care and investigational anticancer small molecules within a complex spheroid model of solid tumors. . Complex spheroids include a stromal component modeled by human endothelial cells (HUVEC) and fibroblasts modeled by human mesenchymal stem cells (MSCs). The concentration ranges selected for each drug and investigational agent were based upon clinically achievable concentrations if the clinical Cmax of the agent was known.
Compounds. The drugs and investigational agents: novobiocin (NSC847541), ART-558 (NSC835418), RP-6685 (NSC848927), peposertib (NSC802822), ceralasertib (NSC780249), elimusertib (NSC800525), camonsertib (NSC841442), AZD-1390 (NSC803789), olaparib (NSC753686), talazoparib (NSC767125), rucaparib (NSC756644), sotorasib (NSC818433), MRTX-1133 (NSC836407), SN-38 (NSC673596), topotecan (NSC609699), epotoside (NSC141540), doxorubicin (NSC123127), gemcitabine (NSC613327), 5-fluorouracil (NSC19893), paclitaxel (NSC125973), vemurafenib (NSC761431), MSA-2 (NSC828583), SN-011 (NSC837082), adavosertib (NSC754352), prexasertib (NSC758257), carboplatin (NSC241240) and oxaliplatin (NSC266046), were obtained from the National Cancer Institute (NCI) Developmental Therapeutics Program Chemical Repository (21). The FDA-approved anticancer drug set is available from the Developmental Therapeutics Program at https://dtp.cancer.gov/organization/dscb/obtaining/. […] The stock solutions were prepared in dimethyl sulfoxide (DMSO, Sigma-Aldrich, St. Louis, MO, cat. D2650), except for the platinum compounds which were prepared in saline (Quality Biological, Gaithersburg, MD, cat. 114-055-101), at 800-fold the tested concentration and stored at -70 degrees C prior to their use. All drugs and investigational agents were tested over a range starting from a high concentration at or near the clinical Cmax and decreasing in half-log increments. If the clinical Cmax for an agent had not been determined, the highest concentration tested was 10 microM, except for SN-38, which was tested at a high concentration of 1 microM.
Cell Culture. All cells were maintained in an incubator at 37 degrees C and 5% CO2 with 95% humidity. The PDC lines were cultured according to standard operating procedures established by the NCI PDMR (https://pdmr.cancer.gov). Table 3 of the manuscript, lists the cell lines along with the number of the three cell types plated to form the mct-spheroids and media for tumor cell growth. After thawing, all PDC lines, except 997537-175-T-J1-PDC and 415267-285-R-J2-PDC, were cultured in Matrigel-coated flasks prepared with a working solution of 1X Ham's F-12 nutrient mix, without supplementation (Thermo Fisher Scientific, cat. 11765054), 100 U/mL penicillin-streptomycin (Thermo Fisher Scientific, cat. 15140122), and 2.5% Matrigel (Corning Inc., Corning, NY, cat. 354248) for the first three passages. The two PDC lines 997537-175-T-J1-PDC and 415267-285-R-J2-PDC were cultured on uncoated flasks. The 857933-349-R-J2-PDC line was cultured in 6C/Colon 1B media containing advanced DMEM/F-12 (Thermo Fisher Scientific, cat. 12634028), 10 mM HEPES (Thermo Fisher Scientific, cat. 15630080), 1X GlutaMAX supplement (Thermo Fisher Scientific, cat. 35050061), 0.1 mg/mL primocin (InvivoGen, San Diego, CA, cat. ant-pm-2), 10% defined fetal bovine serum, heat inactivated (HyClone Laboratories Inc., Logan, UT, cat. SH30070.03HI), 50% L-WRN conditioned media (ATCC, cat. CRL-3276), 1.25 mM N-Acetyl-L-cysteine (Sigma-Aldrich, cat. A9165), 10 mM nicotinamide (Sigma-Aldrich, cat. N0636), 1X B-27 supplement (Thermo Fisher Scientific, cat. 17504044), 1X N-2 supplement (Thermo Fisher Scientific, cat. […]

[1] = curve of first compound, second compound 0.0316 µM
[2] = curve of first compound, second compound 0.1 µM
[3] = curve of first compound, second compound 0.316 µM
[4] = curve of first compound, second compound 1 µM
[5] = curve of first compound, second compound 3.16 µM
[6] = curve of first compound, second compound 10 µM
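Further: spheroids exposed to drugs for seven days before measurement.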
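Wherever viability, T/C is given: percent viability relative to DMSO vehicle control wells taken as 100%.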

CC(=O)O[C@H]1C(=O)[C@@]2(C)[C@H]([C@H](OC(=O)c3ccccc3)[C@]3(O)C[C@H](OC(=O)[C@H](O)[C@@H](NC(=O)c4ccccc4)c4ccccc4)C(C)=C1C3(C)C)[C@]1(OC(C)=O)CO[C@@H]1C[C@@H]2O + Cc1cccc(N(C)C(=O)C2C(O)CCN2c2nc(C)cc(C(F)(F)F)c2C#N)c1
IC50 [1]: < 9.49 nM | IC50 [2]: < 9.49 nM | IC50 [3]: < 9.49 nM | IC50 [4]: < 9.49 nM | IC50 [5]: < 9.49 nM | IC50 [6]: < 9.49 nM | viability, T/C (second compound 0.0316 µM, first compound 0.00949 µM): 5.9% | viability, T/C (second compound 0.0316 µM, first compound 0.03 µM): 5.78% | viability, T/C (second compound 0.0316 µM, first compound 0.0949 µM): 4.79% | viability, T/C (second compound 0.0316 µM, first compound 0.3 µM): 5.44% | viability, T/C (second compound 0.0316 µM, first compound 0.949 µM): 6.64% | viability, T/C (second compound 0.0316 µM, first compound 3 µM): 4.88% | viability, T/C (second compound 0.1 µM, first compound 0.00949 µM): 7.63% | viability, T/C (second compound 0.1 µM, first compound 0.03 µM): 5.67% | viability, T/C (second compound 0.1 µM, first compound 0.0949 µM): 4.39% | viability, T/C (second compound 0.1 µM, first compound 0.3 µM): 5.55% | viability, T/C (second compound 0.1 µM, first compound 0.949 µM): 5.21% | viability, T/C (second compound 0.1 µM, first compound 3 µM): 5.24% | viability, T/C (second compound 0.316 µM, first compound 0.00949 µM): 7.72% | viability, T/C (second compound 0.316 µM, first compound 0.03 µM): 6.78% | viability, T/C (second compound 0.316 µM, first compound 0.0949 µM): 5.34% | viability, T/C (second compound 0.316 µM, first compound 0.3 µM): 4.54% | viability, T/C (second compound 0.316 µM, first compound 0.949 µM): 4.69% | viability, T/C (second compound 0.316 µM, first compound 3 µM): 5.5% | viability, T/C (second compound 1 µM, first compound 0.00949 µM): 7.85% | viability, T/C (second compound 1 µM, first compound 0.03 µM): 5.01% | viability, T/C (second compound 1 µM, first compound 0.0949 µM): 5.19% | viability, T/C (second compound 1 µM, first compound 0.3 µM): 5.01% | viability, T/C (second compound 1 µM, first compound 0.949 µM): 5.7% | viability, T/C (second compound 1 µM, first compound 3 µM): 4.36% | viability, T/C (second compound 3.16 µM, first compound 0.00949 µM): 6.74% | viability, T/C (second compound 3.16 µM, first compound 0.03 µM): 5.6% | viability, T/C (second compound 3.16 µM, first compound 0.0949 µM): 5.28% | viability, T/C (second compound 3.16 µM, first compound 0.3 µM): 4.99% | viability, T/C (second compound 3.16 µM, first compound 0.949 µM): 5.45% | viability, T/C (second compound 3.16 µM, first compound 3 µM): 4.91% | viability, T/C (second compound 10 µM, first compound 0.00949 µM): 6.83% | viability, T/C (second compound 10 µM, first compound 0.03 µM): 5.22% | viability, T/C (second compound 10 µM, first compound 0.0949 µM): 5.42% | viability, T/C (second compound 10 µM, first compound 0.3 µM): 5.06% | viability, T/C (second compound 10 µM, first compound 0.949 µM): 4.84% | viability, T/C (second compound 10 µM, first compound 3 µM): 5.41%

COc1cc(C2c3cc4c(cc3C(OC3OC5COC(C)OC5C(O)C3O)C3COC(=O)C23)OCO4)cc(OC)c1O (stereo unspecified)
viability, T/C (compound 0.0316 µM): 102% and 100% and 103% | viability, T/C (compound 0.1 µM): 94.6% and 100% and 97.6% | viability, T/C (compound 0.316 µM): 87.3% and 85.4% and 94.8% | viability, T/C (compound 1 µM): 64.4% and 47.4% and 68.4% | viability, T/C (compound 3.16 µM): 27% and 15.3% and 23.4% | viability, T/C (compound 10 µM): 11% and 6.79% and 10.2% | IC50 (curve of compound): 1530 nM and 921 nM and 1600 nM

CCc1c2c(nc3ccc(O)cc13)-c1cc3c(c(=O)n1C2)COC(=O)[C@]3(O)CC + Nc1ccc(C#CCN(C(=O)Cc2ncc(C(F)(F)F)cc2C(F)(F)F)c2ccc(F)cc2)nn1
IC50 [1]: < 3.16 nM | IC50 [2]: < 3.16 nM | IC50 [3]: < 3.16 nM | IC50 [4]: < 3.16 nM | IC50 [5]: < 3.16 nM | IC50 [6]: < 3.16 nM | viability, T/C (second compound 0.0316 µM, first compound 0.00316 µM): 25.3% | viability, T/C (second compound 0.0316 µM, first compound 0.01 µM): 11.3% | viability, T/C (second compound 0.0316 µM, first compound 0.0316 µM): 6.56% | viability, T/C (second compound 0.0316 µM, first compound 0.1 µM): 4.56% | viability, T/C (second compound 0.0316 µM, first compound 0.316 µM): 1.97% | viability, T/C (second compound 0.0316 µM, first compound 1 µM): 1.11% | viability, T/C (second compound 0.1 µM, first compound 0.00316 µM): 19% | viability, T/C (second compound 0.1 µM, first compound 0.01 µM): 10.4% | viability, T/C (second compound 0.1 µM, first compound 0.0316 µM): 6.53% | viability, T/C (second compound 0.1 µM, first compound 0.1 µM): 3.88% | viability, T/C (second compound 0.1 µM, first compound 0.316 µM): 2.75% | viability, T/C (second compound 0.1 µM, first compound 1 µM): 1% | viability, T/C (second compound 0.316 µM, first compound 0.00316 µM): 19.8% | viability, T/C (second compound 0.316 µM, first compound 0.01 µM): 11.3% | viability, T/C (second compound 0.316 µM, first compound 0.0316 µM): 8.55% | viability, T/C (second compound 0.316 µM, first compound 0.1 µM): 4.38% | viability, T/C (second compound 0.316 µM, first compound 0.316 µM): 2.3% | viability, T/C (second compound 0.316 µM, first compound 1 µM): 0.79% | viability, T/C (second compound 1 µM, first compound 0.00316 µM): 21.4% | viability, T/C (second compound 1 µM, first compound 0.01 µM): 8.67% | viability, T/C (second compound 1 µM, first compound 0.0316 µM): 6.81% | viability, T/C (second compound 1 µM, first compound 0.1 µM): 3.42% | viability, T/C (second compound 1 µM, first compound 0.316 µM): 1.98% | viability, T/C (second compound 1 µM, first compound 1 µM): 0.59% | viability, T/C (second compound 3.16 µM, first compound 0.00316 µM): 18.6% | viability, T/C (second compound 3.16 µM, first compound 0.01 µM): 9.44% | viability, T/C (second compound 3.16 µM, first compound 0.0316 µM): 7.09% | viability, T/C (second compound 3.16 µM, first compound 0.1 µM): 4.06% | viability, T/C (second compound 3.16 µM, first compound 0.316 µM): 2.05% | viability, T/C (second compound 3.16 µM, first compound 1 µM): 0.6% | viability, T/C (second compound 10 µM, first compound 0.00316 µM): 19% | viability, T/C (second compound 10 µM, first compound 0.01 µM): 10.2% | viability, T/C (second compound 10 µM, first compound 0.0316 µM): 5.83% | viability, T/C (second compound 10 µM, first compound 0.1 µM): 2.67% | viability, T/C (second compound 10 µM, first compound 0.316 µM): 1.43% | viability, T/C (second compound 10 µM, first compound 1 µM): 0.54%
